Experimental findings from patent US20230303599A1, “PRODRUGS OF PHOSPHONAMIDE NUCLEOTIDE ANALOGUES AND THEIR PHARMACEUTICAL USE” (priority 2020, published 2023) are described below.

Each structure is given as a SMILES string. Converted amounts (≈) assume the structure as drawn. Where only a bound is given, the exact number is not on record here.

Data set [1] is described as follows: Cytotoxicity assay in MT-4 cells. Format: cell-based. To be noted: human, uninfected MT-4 cells, average of at least two independent experiments, read-out: MT4 CC50. On the procedure:
Compounds were tested in a high-throughput 384-well assay format for their ability to inhibit the replication of HIV-1 (IIIB) in MT-4 cells. Compounds were serially diluted (1:3) in DMSO on 384-well polypropylene plates and further diluted 200-fold into complete RPMI media (10% FBS, 1% P/S) using the Biotek Micro Flow and Labcyte ECHO acoustic dispenser. Each plate contained up to 8 test compounds, with negative (no drug) and positive (5 μM AZT) controls. MT-4 cells were pre-treated with 10 μL of either RPMI (mock-infected) or a fresh 1:250 dilution of HIV-1 IIIB concentrated virus stock. Infected and uninfected MT-4 cells were further diluted in complete RPMI media and added to each plate using a Micro Flow dispenser. After 5 days incubation in a humidified and temperature-controlled incubator (37° C.), Cell Titer Glo (Promega) was added to the assay plates and chemiluminescence read using an Envision plate-reader. EC50 values were defined as the compound concentration that causes a 50% decrease in luminescence signal and were calculated using a sigmoidal dose-response model to generate curve fits and are shown in Table 1.
Example 105: Cytotoxicity Assay in MT-4 Cells
Assays were performed as described in Example 104 except uninfected MT-4 cells were added to each well containing test compound. In addition, 10 μM puromycin was added to the last column of each assay plate to assess a base level of cytotoxicity.

Data set [2] is described as follows: Kinetic solubility analysis. Format: physicochemical. To be noted: 1× PBS, 24.2 °C, aqueous buffer, kinetic from dmso stock; pH 7.4 PBS, 1% DMSO, 24-hour incubation at ambient temperature. The protocol: Example 108: Kinetic Solubility Analysis
Buffer Preparation: 0.1 N HCl: Hydrochloric acid, 0.1 N standardized solution (MP Biomedicals part number 199569). 1×PBS, pH 7.4: Phosphate Buffered Saline (PBS) solution 10× (Fisher Bioreagent part number BP399-500) 50 mL was added to approximately 450 mL HPLC grade H2O. The volume of the solution was then adjusted to 500 mL for a total dilution factor of 1:10 and a final PBS concentration of 1×.
The final DMSO concentration was 1.0% (v/v) and maximum theoretical compound concentration is 100 μM (for compound stock concentration of 10 mM). The filter plate was sealed. Following 24-hour incubation at ambient temperature (24.2-27.5° C.), the samples were vacuum filtered and the filtrates were collected in a 96 well polypropylene plate for analysis. The collection plate was sealed for analysis. Filtrates were injected into the Antek 8060 chemiluminescent nitrogen detector for quantification. The results are reported in μM.
The filtrates were quantified with respect to this calibration curve. Each calculated solubility value was corrected for background nitrogen present in the DMSO and in the medium used to prepare the sample. All reported values for compounds containing adjacent nitrogen atoms in a ring structure were increased by approximately 25%.

For orientation: CC50 means the concentration that lowers cell viability or growth by half. By solubility (kinetic) is commonly meant solubility judged after dilution from a stock solution rather than from solid. Regarding `C[C@H](Cn1cnc2c(N)ncnc21)OCP(=O)(N[C@@](C)(Cc1ccccc1)C(=O)OCC1CCCCC1)N[C@@](C)(Cc1ccccc1)C(=O)OCC1CCCCC1` [Example 15, Bis(cyclohexylmethyl) 2,2′-((((((R)-1-(6-amino-9H-purin-9-yl)propan-2-yl)oxy)methyl)phosphoryl)bis(azanediyl))(2S,2'S)-bis(2-methyl-3-phenylpropanoate)], in data set [1], the CC50 at 5 days was found to be 4.36 µM. The solubility (kinetic) at 24 h in data set [2] amounted to 2 µg/mL (≈ 2.49 µM).

As for `CCCCCCOC(=O)C(C)(C)NP(=O)(CO[C@H](C)Cn1cnc2c(N)ncnc21)N[C@]1(C(=O)OCCCCCC)C[C@H]1CC` (stereo partly drawn) [Example 16, Hexyl (1R,2R)-1-((((((R)-1-(6-amino-9H-purin-9-yl)propan-2-yl)oxy)methyl)((1-(hexyloxy)-2-methyl-1-oxopropan-2-yl)amino)phosphoryl)amino)-2-ethylcyclopropane-1-carboxylate], the CC50 at 5 days in data set [1] came out at 6.41 µM. In data set [2], this molecule had a kinetic solubility at 24 h of 12 µg/mL (≈ 18.4 µM).

As for `CCCCCCOC(=O)[C@@]1(NP(=O)(CO[C@H](C)Cn2cnc3c(N)ncnc32)N[C@]2(C(=O)OCCCCCC)C[C@H]2CC)C[C@H]1CC` [Example 17, Dihexyl 1,1′-((((((R)-1-(6-amino-9H-purin-9-yl)propan-2-yl)oxy)methyl)phosphoryl)bis(azanediyl))(1R,1′R,2R,2′R)-bis(2-ethylcyclopropane-1-carboxylate)], the CC50 at 5 days in data set [1] came to 8.85 µM.

As for `CCCCCCOC(=O)C(C)(C)NP(=O)(CO[C@H](C)Cn1cnc2c(N)ncnc21)NC1(C(=O)OCCCCCC)CCC1` (stereo partly drawn) [Example 18, Hexyl 1-((((((R)-1-(6-amino-9H-purin-9-yl)propan-2-yl)oxy)methyl)((1-(hexyloxy)-2-methyl-1-oxopropan-2-yl)amino)phosphoryl)amino)cyclobutane-1-carboxylate], the CC50 at 5 days in data set [1] is 6.57 µM. In data set [2], this molecule displayed a solubility (kinetic) at 24 h of 22 µg/mL (≈ 34.5 µM).

In the case of `CCCCCCOC(=O)C1(NP(=O)(CO[C@H](C)Cn2cnc3c(N)ncnc32)NC2(C(=O)OCCCCCC)CCC2)CCC1` [Example 19, Dihexyl 1,1′-(((((1-(6-amino-9H-purin-9-yl)propan-2-yl)oxy)methyl)phosphoryl)bis(azanediyl))(R)-bis(cyclobutane-1-carboxylate)], in data set [1], the cytotoxic concentration (CC50) at 5 days was 17.3 µM. This molecule came in with a solubility (kinetic) at 24 h in data set [2] of 18 µg/mL (≈ 27.7 µM).

Take `C[C@H](Cn1cnc2c(N)ncnc21)OCP(=O)(NC(C)(C)C(=O)OC1CCCC1)NC(C)(C)C(=O)OC1CCCC1` [Example 34, Dicyclopentyl 2,2′-(((((1-(6-amino-9H-purin-9-yl)propan-2-yl)oxy)methyl)phosphoryl)bis(azanediyl))(R)-bis(2-methylpropanoate)]: the CC50 at 5 days in data set [1] came out at 3.67 µM. This molecule registered a kinetic solubility at 24 h in data set [2] of 59 µg/mL (≈ 99.4 µM).

In the case of `CC(C)COC(=O)C(C)(C)NP(=O)(CO[C@H](C)Cn1cnc2c(N)ncnc21)NC(C)(C)C(=O)OCC(C)C` [Example 35, Diisobutyl 2,2′-(((((1-(6-amino-9H-purin-9-yl)propan-2-yl)oxy)methyl)phosphoryl)bis(azanediyl))(R)-bis(2-methylpropanoate)], in data set [1], the CC50 at 5 days turned out to be 4.35 µM. This molecule also displayed a solubility (kinetic) at 24 h in data set [2] of 54 µg/mL (≈ 94.8 µM).

For the molecule `CCCOC(=O)C(C)(C)NP(=O)(CO[C@H](C)Cn1cnc2c(N)ncnc21)NC(C)(C)C(=O)OCCC` [Example 36, Dipropyl 2,2′-(((((1-(6-amino-9H-purin-9-yl)propan-2-yl)oxy)methyl)phosphoryl)bis(azanediyl))(R)-bis(2-methylpropanoate)], the CC50 at 5 days in data set [1] was 8.96 µM. In addition, the solubility (kinetic) at 24 h in data set [2] is 60 µg/mL (≈ 111 µM).

Take `C[C@H](Cn1cnc2c(N)ncnc21)OCP(=O)(NC(C)(C)C(=O)OC1CCC2(CCC2)CC1)NC(C)(C)C(=O)OC1CCC2(CCC2)CC1` (stereo partly drawn) [Example 63, Di(spiro[3.5]nonan-7-yl) 2,2′-(((((1-(6-amino-9H-purin-9-yl)propan-2-yl)oxy)methyl)phosphoryl)bis(azanediyl))(R)-bis(2-methylpropanoate)]: the cytotoxic concentration (CC50) at 5 days in data set [1] was found to be 2.22 µM.

In the case of `CCCCCCOC(=O)C(NP(=O)(CO[C@H](C)Cn1cnc2c(N)ncnc21)NC(C(=O)OCCCCCC)(C1CC1)C1CC1)(C1CC1)C1CC1` [Example 64, Dihexyl 2,2′-(((((1-(6-amino-9H-purin-9-yl)propan-2-yl)oxy)methyl)phosphoryl)bis(azanediyl))(R)-bis(2,2-dicyclopropylacetate)], the CC50 at 5 days in data set [1] amounted to 7.34 µM. Besides, the solubility (kinetic) at 24 h in data set [2] was under 1 µg/mL.

`CCCCCCOC(=O)C(C)(C)NP(=O)(CO[C@H](C)Cn1cnc2c(N)ncnc21)NC(C)(C)C(=O)OCC1(F)CC1` (stereo partly drawn) [Example 78, (1-Fluorocyclopropyl)methyl 2-((((((R)-1-(6-amino-9H-purin-9-yl)propan-2-yl)oxy)methyl)((1-(hexyloxy)-2-methyl-1-oxopropan-2-yl)amino)phosphoryl)amino)-2-methylpropanoate] showed a solubility (kinetic) at 24 h in data set [2] of 60 µg/mL (≈ 97.8 µM).

For the molecule `CCCCCCOC(=O)C(C)(C)NP(=O)(CO[C@H](C)Cn1cnc2c(N)ncnc21)NC(C)(C)C(=O)OCC(C)(C)OC` (stereo partly drawn) [Example 79, Hexyl 2-((((((R)-1-(6-amino-9H-purin-9-yl)propan-2-yl)oxy)methyl)((1-(2-methoxy-2-methylpropoxy)-2-methyl-1-oxopropan-2-yl)amino)phosphoryl)amino)-2-methylpropanoate], in data set [2], the kinetic solubility at 24 h turned out to be 68 µg/mL (≈ 108 µM).

The molecule `CCCCCCOC(=O)C(C)(C)NP(=O)(CO[C@H](C)Cn1cnc2c(N)ncnc21)NC(C)(C)C(=O)OCC12CCC(CC1)C2` (stereo partly drawn) [Example 80, Bicyclo[2.2.1]heptan-1-ylmethyl 2-((((((R)-1-(6-amino-9H-purin-9-yl)propan-2-yl)oxy)methyl)((1-(hexyloxy)-2-methyl-1-oxopropan-2-yl)amino)phosphoryl)amino)-2-methylpropanoate] had a solubility (kinetic) at 24 h in data set [2] of 56 µg/mL (≈ 86.2 µM).

`CCCCCCOC(=O)C(C)(C)NP(=O)(CO[C@H](C)Cn1cnc2c(N)ncnc21)NC(C)(C)C(=O)OC(C)C1CC1` (stereo partly drawn) [Example 81, 1-Cyclopropylethyl 2-((((((R)-1-(6-amino-9H-purin-9-yl)propan-2-yl)oxy)methyl)((1-(hexyloxy)-2-methyl-1-oxopropan-2-yl)amino)phosphoryl)amino)-2-methylpropanoate]: in data set [2], the solubility (kinetic) at 24 h came out at 61 µg/mL (≈ 100 µM).

In turn, `CCCCCCOC(=O)C(C)(C)NP(=O)(CO[C@H](C)Cn1cnc2c(NCc3oc(=O)oc3C)ncnc21)NC(C)(C)C(=O)OCCCCCC` [Example 82, Dihexyl 2,2′-(((((1-(6-(((5-methyl-2-oxo-1,3-dioxol-4-yl)methyl)amino)-9H-purin-9-yl)propan-2-yl)oxy)methyl)phosphoryl)bis(azanediyl))(R)-bis(2-methylpropanoate)] came in with a solubility (kinetic) at 24 h in data set [2] of 10 µg/mL (≈ 13.6 µM).

In turn, `C[C@H](Cn1cnc2c(N)ncnc21)OCP(=O)(NC(C)(C)C(=O)O[C@H]1C[C@@H](c2ccccc2)C1)NC(C)(C)C(=O)O[C@H]1C[C@@H](c2ccccc2)C1` [Example 85, Bis((1s,3S)-3-phenylcyclobutyl) 2,2′-((((((R)-1-(6-amino-9H-purin-9-yl)propan-2-yl)oxy)methyl)phosphoryl)bis(azanediyl))bis(2-methylpropanoate)] came in with a solubility (kinetic) at 24 h in data set [2] of 6 µg/mL (≈ 8.36 µM).

Take `C[C@H](Cn1cnc2c(N)ncnc21)OCP(=O)(NC(C)(C)C(=O)O[C@H]1CC[C@H](c2ccccc2)CC1)NC(C)(C)C(=O)O[C@H]1CC[C@H](c2ccccc2)CC1` [Example 93, Bis(trans-4-phenylcyclohexyl) 2,2′-((((((R)-1-(6-amino-9H-purin-9-yl)propan-2-yl)oxy)methyl)phosphoryl)bis(azanediyl))bis(2-methylpropanoate)]: the CC50 at 5 days in data set [1] is 5.47 µM. In data set [2], this molecule showed a solubility (kinetic) at 24 h of 1 µg/mL (≈ 1.29 µM).

`CCCCCCOC(=O)C(C)(C)NP(=O)(CO[C@H](C)Cn1cnc2c(NC(=O)OCC(=O)OCc3oc(=O)oc3C)ncnc21)NC(C)(C)C(=O)OCCCCCC` [Example 95, Dihexyl 2,2′-(((((1-(6-(((2-((5-methyl-2-oxo-1,3-dioxol-4-yl)methoxy)-2-oxoethoxy)carbonyl)amino)-9H-purin-9-yl)propan-2-yl)oxy)methyl)phosphoryl)bis(azanediyl))(R)-bis(2-methylpropanoate)]: the CC50 at 5 days in data set [1] was determined as 14.8 µM. In data set [2], the kinetic solubility at 24 h is 60 µg/mL (≈ 71.4 µM).
